Assay results as given in PubChem BioAssay AID504344 (Broad Institute, 2011).
Activity calls are given as the source filed them.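 Rule for the calls: active = fitted curve reaches 10% of the positive control caspase activation at or below the top valid tested dose; inactive = signal shifts the opposite way, plus the rest.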

System: Bax/Bak-/- MEF caspase activation, CaspaseGlo luminescence, 3 h
Assay: caspase signal in Bax/Bak-deficient fibroblasts – cell-based, mouse embryonic fibroblasts, dry powder, set 2, counter-screen for Bcl2-A1 inhibitor project, dose response (AID 504344)
Conditions: not given

**Q.** For `Cc1ccc(Sc2c([N+](=O)[O-])c(=O)oc3ccccc23)cc1`, which AC10 is on record?
**A.** > 35 µM (inactive)

System: not listed separately
Assay: as above
Conditions: Bax/Bak-/- MEF caspase activation, CaspaseGlo luminescence, 3 h; at 35 µM (top of the series)

**Q.** With `Cc1ccc(Sc2c([N+](=O)[O-])cnc3ccccc23)cc1` as the compound, how does the caspase activation read?
**A.** 3.45% (inactive)

**Q.** For `CCSc1c([N+](=O)[O-])c(=O)oc2ccccc12`, which caspase activation is on record?
**A.** 0.365% (inactive)

**Q.** For `C/C1=C/C(=O)O[C@@H]2C[C@@H](CC[C@H](C)/C=C\CC1)O[C@@](O)(C1CSC(=O)N1)C2` (stereo partly specified), which caspase activation is on record?
**A.** 0.173% (inactive)

**Q.** With `O=[N+]([O-])c1cnc2ccccc2c1Sc1ccccc1` as the compound, how does the caspase activation read?
**A.** 2.51% (inactive)

**Q.** With `Cc1ccc(Sc2c([N+](=O)[O-])c(=O)n(C)c3ccccc23)cc1` as the compound, how does the caspase activation read?
**A.** 1.18% (inactive)

**Q.** For `CCOC(=O)N1CCN(c2c([N+](=O)[O-])c(=O)n(C)c3ccccc23)CC1`, which caspase activation is on record?
**A.** -0.062% (inactive)

**Q.** For `Cn1c(=O)c([N+](=O)[O-])c(-n2cnc3ccccc32)c2ccccc21`, which caspase activation is on record?
**A.** 0.662% (inactive)

**Q.** For `O=c1oc2ccccc2c(Nc2cc(Cl)cc(Cl)c2)c1[N+](=O)[O-]`, which caspase activation is on record?
**A.** -0.079% (inactive)

**Q.** For `Cc1ccc(Nc2c([N+](=O)[O-])c(=O)oc3ccccc23)cc1`, which caspase activation is on record?
**A.** -0.021% (inactive)

**Q.** Which caspase activation does the source give for `O=c1oc2ccccc2c(Cl)c1[N+](=O)[O-]` here?
**A.** -0.981% (inactive)

**Q.** Which caspase activation does the source give for `O=c1oc2ccccc2c(N2CCCCC2)c1[N+](=O)[O-]` here?
**A.** -0.245% (inactive)

**Q.** Which caspase activation does the source give for `Cn1c(=O)c([N+](=O)[O-])c(Oc2ccccc2)c2ccccc21` here?
**A.** 0.272% (inactive)

**Q.** With `CCOCCCNc1c([N+](=O)[O-])c(=O)n(C)c2ccccc12` as the compound, how does the caspase activation read?
**A.** 0.166% (inactive)

**Q.** With `Cn1c(=O)c([N+](=O)[O-])c(Cl)c2ccccc21` as the compound, how does the caspase activation read?
**A.** 0.515% (inactive)

**Q.** For `CN1C(=O)C(C)(C)N(Cc2ccccc2)c2ccccc21`, which caspase activation is on record?
**A.** -0.187% (inactive)

**Q.** For `Cc1ccc(Sc2cc(=O)n(C)c3ccccc23)cc1`, which caspase activation is on record?
**A.** -0.817% (inactive)

**Q.** Which caspase activation does the source give for `Cn1c(=O)c([N+](=O)[O-])c(Nc2ccc(Cl)cc2)c2ccccc21` here?
**A.** 0.654% (inactive)

**Q.** Which caspase activation does the source give for `O=C(Oc1cccc(/C=N/Nc2nc(Nc3ccccc3)nc(N3CCOCC3)n2)c1)c1ccco1` here?
**A.** 0.026% (inactive)

**Q.** Which caspase activation does the source give for `O=c1oc2ccccc2c(Sc2ccccc2)c1[N+](=O)[O-]` here?
**A.** -0.438% (inactive)

**Q.** Which caspase activation does the source give for `Cc1ccc(Nc2c([N+](=O)[O-])c(=O)n(C)c3ccccc23)cc1` here?
**A.** 0.3% (inactive)
